Measurements reported in US12364702B2, “Highly active sting protein agonist compound” (ADLAI NORTYE BIOPHARMA CO., LTD., priority 2018, dated 2025).
pEC50: −log10 of the molar value. Where two headings read alike, the source gives them in different places.

Key:
Format in all cases: cell-based
STING WT variant = molecular target: T1, STING WT variant (Homo sapiens, UniProt Q86WV6); experiment: SEAP reporter assay in HEK-Blue ISG KO-STING cells transfected with STING WT variant (Method 1); details: 1 ng STING vector, compound 2.5 uM, 24 h, SEAP signal vs 0.5% DMSO
T1 construct: host or cells: HEK-Blue ISG KO-STING cells (Invivogen, hkb-kostg)
From the text: (§1) Activation of STING can be determined using a SEAP reporter assay in HEK-Blue™ ISG KO-STING cells (Invivogen, cat #hkb-kostg) transfected with plasmids expressing STING variants (WT & HAQ) (referred to WO2017/175147A1). STING variants (WT & HAQ) vector were constructed based on STING-232H vector (Origene, RC208418). GFP vector (VT2069) was bought from Youbio. The detailed protocol as follows: HEK-Blue™ ISG KO-STING cells were harvest and seeding into 96 well plate, the final cell number was 0.8×10^5 cells/well. Transfections were prepared using Lipofectamine 2000 (Invitrogen, Cat #11668-027) following the manufacturer's instructions (Lipo2000/DNA=1/10), 20 ul of transfection suspension containing 1 ng STING vector was added to cell culture plate and incubated at 37° C., 5% CO2 for 24 hours. After 24 hours' incubation, compounds were added at proper concentration, and the final DMSO concentration was 0.5%. After 24 h incubation, the supernatant was collected to detect SEAP signal using Great EscAPe SEAP chemiluminescence KIT (Clontech, cat #631738) and cells were collected to detect cell viability using CellTiter-Glo Luminescent Cell Viability Assay (Promega, cat #G7573) following the manufacturer's instructions. The data were described by the ratio of the stimulating signal of compounds to 0.5% DMSO.

STING HAQ variant = molecular target: T2, STING HAQ variant (Homo sapiens, UniProt Q86WV6, G230A/R293Q/R71H); experiment: SEAP reporter assay in HEK-Blue ISG KO-STING cells transfected with STING HAQ variant (Method 1); details: 1 ng STING vector, compound 5 uM, 24 h, SEAP signal vs 0.5% DMSO
T2 construct: host or cells: HEK-Blue ISG KO-STING cells (Invivogen, hkb-kostg)
From the text: as §1

STING = STING (Homo sapiens, UniProt Q86WV6); experiment: IFN-β secretion from THP1 by STING activation (hIFNβ ELISA)
Protocol: In this assay, activation of STING by compounds was evaluated by detecting their ability to stimulate the secretion of IFN-β (interferon-beta) from THP1. THP1 was purchased from National Collection of Authenticated Cell Cultures (Cat #TCHu 57). The top dose of compounds was setted according to their solubility. First, Compounds were 3 times diluted with medium, 8-dose points in total. The final DMSO concentration was 0.2%. THP1 during the logarithmic phase was resuspended to 2×10^6 cells/ml in assay medium. The THP1-cell suspension was dispensed into a 96-well U bottom plate containing 50 ul of compound diluted in medium. After 24 h incubation at 37° C., 5% CO2, the supernatant was collected. The concentration of IFN-β in the supernatant was measured using a human IFNβ ELISA KIT (R&D, DY814-05). The data was fitted with GraphPad Prism or XLfit to calculate EC50 values.

[1] = THP1 cells; 24 h incubation; IFN-β in supernatant; top dose set according to solubility
[2] = THP1 cells; 24 h incubation; IFN-β in supernatant; top dose set according to solubility; read-out: hIFNβ ELISA (EC50)
[3] = read-out: hIFNβ ELISA (EC50); THP1 cells; 24 h incubation; IFN-β in supernatant; top dose set according to solubility

T2 sequence (Q86WV6 whole entry R71H/G230A/R293Q): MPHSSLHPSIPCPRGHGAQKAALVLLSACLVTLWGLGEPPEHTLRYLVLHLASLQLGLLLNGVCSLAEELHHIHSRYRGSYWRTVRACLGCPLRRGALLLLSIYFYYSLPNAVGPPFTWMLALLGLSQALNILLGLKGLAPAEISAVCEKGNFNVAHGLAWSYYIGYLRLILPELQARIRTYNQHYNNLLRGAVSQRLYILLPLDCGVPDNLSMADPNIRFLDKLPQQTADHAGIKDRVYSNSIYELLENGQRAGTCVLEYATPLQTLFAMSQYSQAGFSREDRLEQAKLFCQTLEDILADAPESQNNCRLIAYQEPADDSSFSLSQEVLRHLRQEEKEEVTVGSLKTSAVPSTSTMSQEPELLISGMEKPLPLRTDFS
Sequence of STING (Q86WV6 whole entry): as the sequence (Q86WV6 whole entry R71H/G230A/R293Q) above, with H71R, A230G, Q293R counted along it

Row | Fold change related to DMSO control WT (STING WT variant) | Fold change related to DMSO control HAQ (STING HAQ variant) | hIFNβ ELISA (EC50, μM) (STING; [1]) | pEC50 (STING; [2]) | SMILES | pEC50 (STING; [3])
1 | 2.07 | 20.47 | – | < 4.75 | CCn1nc(C)cc1C(=O)Nc1nc2cc(C(N)=O)cc(OCCNC)c2n1CCC[C@H]1COc2cc(C(N)=O)cc3nc(NC(=O)c4cc(C)nn4CC)n1c23 [Example 16, (S)-3-(3-(5-carbamoyl-2-(1-ethyl-3-methyl-1H-pyrazole-5-carboxamido)-7-(2-(methylamino)ethoxy)-1H-benzo[d]imidazol-1-yl)propyl)-2-(1-ethyl-3-methyl-1H-pyrazole-5-carboxamido)-3,4-dihydro-5-oxa-1,2a-diazaacenaphthylene-7-carboxamide] | –
2 | 2.64 | 40.66 | – | 4.74 | CCn1nc(C)cc1C(=O)Nc1nc2cc(C(N)=O)cc(OCCCN(C)C)c2n1CCC[C@H]1COc2cc(C(N)=O)cc3nc(NC(=O)c4cc(C)nn4CC)n1c23 [Example 18, (S)-3-(3-(5-carbamoyl-7-(3-(dimethylamino)propoxy)-2-(1-ethyl-3-methyl-1H-pyrazole-5-carboxamido)-1H-benzo[d]imidazol-1-yl)propyl)-2-(1-ethyl-3-methyl-1H-pyrazole-5-carboxamido)-3,4-dihydro-5-oxa-1,2a-diazaacenaphthylene-7-carboxamide] | –
3 | 2.33 | 60.17 | – | 5.21 | CCn1nc(C)cc1C(=O)Nc1nc2cc(C(N)=O)cc(OCCOC)c2n1CCC[C@H]1COc2cc(C(N)=O)cc3nc(NC(=O)c4cc(C)nn4CC)n1c23 [Example 19, (S)-3-(3-(5-carbamoyl-2-(1-ethyl-3-methyl-1H-pyrazole-5-carboxamido)-7-(2-methoxyethoxy)-1H-benzo[d]imidazol-1-yl)propyl)-2-(1-ethyl-3-methyl-1H-pyrazole-5-carboxamido)-3,4-dihydro-5-oxa-1,2a-diazaacenaphthylene-7-carboxamide] | –
4 | 2.63 | 41.58 | – | 4.94 | CCn1nc(C)cc1C(=O)Nc1nc2cc(C(N)=O)cc(OCCCNC(=O)CN(C)C)c2n1CCC[C@H]1COc2cc(C(N)=O)cc3nc(NC(=O)c4cc(C)nn4CC)n1c23 [Example 20, (S)-3-(3-(5-carbamoyl-7-(3-(2-(dimethylamino)acetamido)propoxy)-2-(1-ethyl-3-methyl-1H-pyrazole-5-carboxamido)-1H-benzo[d]imidazol-1-yl)propyl)-2-(1-ethyl-3-methyl-1H-pyrazole-5-carboxamido)-3,4-dihydro-5-oxa-1,2a-diazaacenaphthylene-7-carboxamide] | –
5 | 2.38 | 40.44 | – | 5.85 | CCn1nc(C)cc1C(=O)Nc1nc2cc(C(N)=O)cc(OCCCNC(=O)CN3CCOCC3)c2n1CCC[C@H]1COc2cc(C(N)=O)cc3nc(NC(=O)c4cc(C)nn4CC)n1c23 [Example 21, (S)-3-(3-(5-carbamoyl-2-(1-ethyl-3-methyl-1H-pyrazole-5-carboxamido)-7-(3-(2-morpholinoacetamido)propoxy)-1H-benzo[d]imidazol-1-yl)propyl)-2-(1-ethyl-3-methyl-1H-pyrazole-5-carboxamido)-3,4-dihydro-5-oxa-1,2a-diazaacenaphthylene-7-carboxamide] | –
6 | 2.40 | 47.36 | – | 5.41 | CCn1nc(C)cc1C(=O)Nc1nc2cc(C(N)=O)cc(OCCCNC(C)=O)c2n1CCC[C@H]1COc2cc(C(N)=O)cc3nc(NC(=O)c4cc(C)nn4CC)n1c23 [Example 22, (S)-3-(3-(7-(3-acetamidopropoxy)-5-carbamoyl-2-(1-ethyl-3-methyl-1H-pyrazole-5-carboxamido)-1H-benzo[d]imidazol-1-yl)propyl)-2-(1-ethyl-3-methyl-1H-pyrazole-5-carboxamido)-k, 3,4-dihydro-5-oxa-1,2a-diazaacenaphthylene-7-carboxamide] | –

The next lines start with the compound.

Row | SMILES | Fold change related to DMSO control WT (STING WT variant) | Fold change related to DMSO control HAQ (STING HAQ variant) | hIFNβ ELISA (EC50, μM) (STING; [1]) | pEC50 (STING; [2]) | pEC50 (STING; [3])
7 | COCCCOc1cc(C(N)=O)cc2nc(NC(=O)c3cc(C)nn3CCF)n(CCC[C@H]3COc4cc(C(N)=O)cc5nc(NC(=O)c6cc(C)nn6CCF)n3c45)c12 [Example 10, (S)-3-(3-(5-carbamoyl-2-(1-(2-fluoroethyl)-3-methyl-1H-pyrazole-5-carboxamido)-7-(3-methoxypropoxy)-1H-benzo[d]imidazol-1-yl)propyl)-2-(1-(2-fluoroethyl)-3-methyl-1H-pyrazole-5-carboxamido)-3,4-dihydro-5-oxa-1,2a-diazaacenaphthylene-7-carboxamide] | 1.98 | 16.63 | inactive | – | –
8 | CCn1nc(C)cc1C(=O)Nc1nc2cc(C(N)=O)cc3c2n1[C@@H](CCCn1c(NC(=O)c2cc(C)nn2CCF)nc2cc(C(N)=O)cc(OCCCOC)c21)CO3 [Example 12, (S)-3-(3-(5-carbamoyl-2-(1-(2-fluoroethyl)-3-methyl-1H-pyrazole-5-carboxamido)-7-(3-methoxypropoxy)-1H-benzo[d]imidazol-1-yl)propyl)-2-(1-ethyl-3-methyl-1H-pyrazole-5-carboxamido)-3,4-dihydro-5-oxa-1,2a-diazaacenaphthylene-7-carboxamide] | 1.89 | 26.28 | – | < 5.04 | –
9 | CCn1nc(C)c(Br)c1C(=O)Nc1nc2cc(C(N)=O)cc3c2n1[C@@H](CCCn1c(NC(=O)c2cc(C)nn2CCF)nc2cc(C(N)=O)cc(OCCCOC)c21)CO3 [Example 13, (S)-2-(4-bromo-1-ethyl-3-methyl-1H-pyrazole-5-carboxamido)-3-(3-(5-carbamoyl-2-(1-(2-fluoroethyl)-3-methyl-1H-pyrazole-5-carboxamido)-7-(3-methoxypropoxy)-1H-benzo[d]imidazol-1-yl)propyl)-3,4-dihydro-5-oxa-1,2a-diazaacenaphthylene-7-carboxamide] | 1.79 | 26.64 | – | < 5.52 | –
10 | CCn1nc(C)cc1C(=O)Nc1nc2cc(C(N)=O)cc(OCCCN)c2n1CCC[C@H]1COc2cc(C(N)=O)cc3nc(NC(=O)c4cc(C)nn4CC)n1c23.Cl [Example 14, (S)-3-(3-(7-(3-aminopropoxy)-5-carbamoyl-2-(1-ethyl-3-methyl-1H-pyrazole-5-carboxamido)-1H-benzo[d]imidazol-1-yl)propyl)-2-(1-ethyl-3-methyl-1H-pyrazole-5-carboxamido)-3,4-dihydro-5-oxa-1,2a-diazaacenaphthylene-7-carboxamide] | 2.17 | 16.68 | – | – | < 4.86
11 | CCn1nc(C)cc1C(=O)Nc1nc2cc(C(N)=O)cc(OCCCNC(=O)CN(C)C)c2n1CCC[C@H]1COc2cc(C#N)cc3nc(NC(=O)c4cc(C)nn4CC)n1c23 [Example 15, (S)-1-(3-(7-cyano-2-(1-ethyl-3-methyl-1H-pyrazole-5-carboxamido)-3,4-dihydro-5-oxa-1,2a-diazaacenaphthylen-3-yl)propyl)-7-(3-(2-(dimethylamino)acetamido)propoxy)-2-(1-ethyl-3-methyl-1H-pyrazole-5-carboxamido)-1H-benzo[d]imidazole-5-carboxamide] | 2.11 | 11.61 | inactive | – | –
12 | CCn1nc(C)cc1C(=O)Nc1nc2cc(C(N)=O)cc(OCCCNC)c2n1CCC[C@H]1COc2cc(C(N)=O)cc3nc(NC(=O)c4cc(C)nn4CC)n1c23.Cl [Example 17, (S)-3-(3-(5-carbamoyl-2-(1-ethyl-3-methyl-1H-pyrazole-5-carboxamido)-7-(3-(methylamino)propoxy)-1H-benzo[d]imidazol-1-yl)propyl)-2-(1-ethyl-3-methyl-1H-pyrazole-5-carboxamido)-3,4-dihydro-5-oxa-1,2a-diazaacenaphthylene-7-carboxamide Hydrochloride] | 2.35 | 33.85 | – | – | 5.01
